# Values joined by “and” are separate entries in the source; they are usually repeats but may differ in a detail not shown here. Equal entries are not always repeated.
# Legend:
# [1] = biological target: T1, AAD1 (v1) (Sphingobium herbicidovorans, UniProt Q8KSC8); experiment: Colorimetric phenol detection assay of AAD1 (v1) activity (purified enzyme or E. coli extract); format: biochemical; details: for rate of product formation relative to 2,4-D / A510: 1 mM; for rate of product formation relative to 2,4-D: 27 μg crude recombinant AAD1 (v1) per assay; for A510 / % 2,4-D: Table 8; for A510: 27 μg crude recombinant AAD1 (v1) extract from E. coli; for % 2,4-D: relative to 2,4-D, crude AAD1 (v1) extract; for A510, AAD1 / A510, AAD1 (10x): substrate 1 mM; for A510, AAD1: 1 μg purified AAD1 (v1) per 0.16 ml assay; for A510, AAD1 (10x): 10 μg purified AAD1 (v1) per 0.16 ml assay
# T1 construct: made in house; host or cells: E. coli BL-21 Star (DE3), plasmid pDAB3203
# T1 sequence (Q8KSC8 whole entry): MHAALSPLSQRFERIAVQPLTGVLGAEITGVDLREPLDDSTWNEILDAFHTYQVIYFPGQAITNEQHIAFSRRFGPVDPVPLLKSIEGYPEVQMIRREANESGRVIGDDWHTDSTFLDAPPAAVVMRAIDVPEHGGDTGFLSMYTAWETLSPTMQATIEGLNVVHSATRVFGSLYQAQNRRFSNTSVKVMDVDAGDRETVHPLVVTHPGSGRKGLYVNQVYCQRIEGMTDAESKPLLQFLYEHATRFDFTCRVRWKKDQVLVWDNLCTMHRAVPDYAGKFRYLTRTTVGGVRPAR
# [2] = system: transformed-control line containing PAT and Cry1F; experiment: Foliar-applied auxinic herbicides on control (PAT/Cry1F, wildtype) Arabidopsis, % injury 14 DAT; format: in vivo, Arabidopsis thaliana; details: PatCry1f - Control
# Description: (§1) The ability of AAD1 (v3) to provide resistance to other aryloxyphenoxyalkanoate auxin herbicides in transgenic Arabidopsis was determined by foliar application of various substrates described in Example 6.8. T4 generation Arabidopsis seed, homozygous for AAD1 (v3) (line AAD1.01.315.076) was stratified, and sown into selection trays much like that of Arabidopsis (Example 6.4). A transformed-control line containing PAT and the insect resistance gene Cry1F was planted in a similar manner. Seedlings were transferred to individual 3-inch pots in the greenhouse. All plants were sprayed with the use of a track sprayer set at 187 L/ha. […] All applications were formulated in 200 mM Hepes buffer (pH 7.5). Each treatment was replicated 3-4 times. Plants were evaluated at 3 and 14 days after treatment and are averaged over two experiments.
# [3] = system: T4 Arabidopsis homozygous for AAD1 (v3) (line AAD1.01.315.076); experiment: Foliar-applied auxinic herbicides on homozygous T4 AAD1 (v3) Arabidopsis, % injury 14 DAT; format: in vivo, Arabidopsis thaliana; details: AAD1.01.315.076.T4 homozygous AAD1 plants
# Description: as §1
smiles,measurement,setting,value
"CC(Oc1cc(F)c(Cl)c(N)c1Cl)C(=O)O (racemic) [(R,S)-3-amino, 5-F-dichlorprop]","rate of product formation relative to 2,4-D",[1],125%
same,A510,[1],0.221
same,"% 2,4-D",[1],125%
CC(C)COC(=O)COc1ccc(Cl)cc1Cl [compound 190252],"A510, AAD1","[1]; Table 3, 15 min",0.008
same,"A510, AAD1 (10x)","[1]; Table 3, 15 min",0.211
O=S(=O)([O-])OCCOc1ccc(Cl)cc1Cl.[Na+] [sesone],"A510, AAD1","[1]; Table 3, 15 min",0.02
same,"A510, AAD1 (10x)","[1]; Table 3, 15 min",0.177
O=C(O)CCCOc1ccc(Cl)cc1Cl [compound 178577],"A510, AAD1","[1]; Table 3, 15 min",0.003
same,"A510, AAD1 (10x)","[1]; Table 3, 15 min",0.021
O=C(O)COc1ccc(Cl)c2cccnc12 [Cloquintocet],activity of purified AAD1 (v1) on substrate,"[1]; 1 mM substrate, 1 or 10 μg enzyme",no activity
same,"A510, AAD1",[1]; Table 4,0
same,"A510, AAD1 (10x)",[1]; Table 4,0.001
Nc1c(Cl)ccc(OCC(=O)O)c1Cl [compound 11263526],"A510, AAD1","[1]; Table 3, 15 min",0.004
same,"A510, AAD1 (10x)","[1]; Table 3, 15 min",0.069
"CC(Oc1ccc(Oc2nc3ccc(Cl)cc3s2)cc1)C(=O)O (racemic) [(R,S)- fenthiaprop]","A510, AAD1",[1]; Table 4,0.199
same,"A510, AAD1 (10x)",[1]; Table 4,1.055
CC(Oc1ccc(Oc2ncc(C(F)(F)F)cc2Cl)cc1F)C(=O)O (centres unmarked) [compound 25646],"A510, AAD1",[1]; Table 4,0.144
same,"A510, AAD1 (10x)",[1]; Table 4,1.69
O=C(O)COc1ccc(F)cc1Cl [compound 124988],"A510, AAD1","[1]; Table 3, 15 min",0.007
same,"A510, AAD1 (10x)","[1]; Table 3, 15 min",0.058
"CC(Oc1ccc(F)cc1Cl)C(=O)O (racemic) [(R,S)-2-chloro, 4-fluorophenoxy-proprionate]","A510, AAD1","[1]; Table 3, 15 min",0.304
same,"A510, AAD1 (10x)","[1]; Table 3, 15 min",2.358
"Oc1ccc(Cl)cc1Cl [2,4-DCP]",Ave % Injury 14DAT,[2]; 50 g ae/ha foliar,0%
same,Ave % Injury 14DAT,[2]; 200 g ae/ha foliar,0%
same,Ave % Injury 14DAT,[2]; 800 g ae/ha foliar,0%
same,Ave % Injury 14DAT,[2]; 3200 g ae/ha foliar,0%
same,Ave % Injury 14DAT,[3]; 50 g ae/ha foliar,0%
same,Ave % Injury 14DAT,[3]; 200 g ae/ha foliar,0%
same,Ave % Injury 14DAT,[3]; 800 g ae/ha foliar,0%
same,Ave % Injury 14DAT,[3]; 3200 g ae/ha foliar,0%
"CC(Oc1ccc(Oc2ncc(Cl)cc2F)cc1)C(=O)O (racemic) [(R,S)- clodinofop]","A510, AAD1",[1]; Table 4,0.295
same,"A510, AAD1 (10x)",[1]; Table 4,1.98
CCC(Oc1ccc(Cl)cc1Cl)C(N)=O (centres unmarked) [compound 192132],"A510, AAD1","[1]; Table 3, 15 min",0.064
same,"A510, AAD1 (10x)","[1]; Table 3, 15 min",0.204
"O=C(O)COc1cc(F)c(Cl)cc1Cl [5-F, 2,4-D]","rate of product formation relative to 2,4-D",[1],32%
same,A510,[1],0.056
same,"% 2,4-D",[1],32%
"CC(Oc1ccc(Oc2ccc(C(F)(F)F)cn2)cc1)C(=O)O (racemic) [(R,S)- fluazifop]","A510, AAD1",[1]; Table 4,0.427
same,"A510, AAD1 (10x)",[1]; Table 4,2.17
"CC(Oc1ccc(Cl)c(N)c1Cl)C(=O)O (racemic) [(R,S)-3-aminodichlorpop]","A510, AAD1","[1]; Table 3, 15 min",0.228
same,"A510, AAD1 (10x)","[1]; Table 3, 15 min",2.676
same,"fold better than 2,4-D as a substrate","[1]; purified AAD1 (v1), Table 3 data, listed as 3-aminodichlorprop",~7 fold and > 7 fold
"CC(Oc1ccc(Oc2ncc(Cl)cc2Cl)cc1)C(=O)O (racemic) [(R,S)- chlorazifop]","A510, AAD1",[1]; Table 4,0.128
same,"A510, AAD1 (10x)",[1]; Table 4,1.584
